Patent publication US11628172B2, “Methods of treating chronic lymphocytic leukemia using 2-(2,6-dioxopiperidin-3-yl)-4-((2-fluoro-4-((3-morpholinoazetidin-1-yl)methyl)benzyl)amino)isoindoline-1,3-dione” (Celgene Corporation, priority 2019, dated 2023)

How the values were obtained:
Mec1 CLL cell line = test: Cell proliferation and viability assay (384-well flow cytometry, Annexin V/DRAQ7), Mec1; assay type: cell-based; conditions: 120 hours
Protocol: (§1) The following are examples of cell-based assays that can be used to determine the anti-proliferative activity and apoptotic effect of compounds described herein using exemplary CLL cell lines (Table 3). The in vitro growth inhibitory activity of Compound 1 described herein was evaluated using a 384-well flow cytometry assay.
(§2) The cell lines were plated under the conditions shown in Table 3 in 384-well flat bottom plates and incubated with increasing concentrations of compound ranging from 0.00015 to 10 μM or dimethyl sulfoxide (DMSO) control. The final concentration of DMSO was 0.1% (v/v). Following the addition of Compound 1 or DMSO and incubation for 120 hours, cell number and cell death were analyzed by flow cytometry (Attune®, Thermo Fisher) using Annexin V and the live-cell impermeant DNA dye, DRAQ7. […]
(§3) Flow cytometry data analysis was then performed using the Flow Jo_v10 software to determine the number of viable cells (Annexin V and DRAQ7 double negative staining cells) and percentage of apoptotic cells (Annexin V positive cells) for each condition. […] The IC50 (50% inhibitory concentration) and Emax (maximum efficacy achieved) values were then calculated by performing nonlinear regression curve fitting using log (inhibitor) vs. normalized response—variable slope analysis on GraphPad Prism 7.03. […]

[1] = tested on: primary CLL cells from patient-derived blood (CD5+CD19+ tumor cells); test: Compound 1 in combination with obinutuzumab in B-cell CLL patient cells (ex vivo co-culture, flow cytometry, Caspase3); assay type: cell-based, human; conditions: single agent (Cpd1 DRC with DMSO, or obinutuzumab alone), 144 h, apoptosis (Caspase 3), DMSO baseline subtracted
Protocol: Obinutuzumab (GA101) is a humanized, glycoengineered type 2 antibody targeted against CD20. […] The effect of treatment with Compound 1 in combination with obinutuzumab on the proliferation and survival of CLL B cells was assessed utilizing an ex vivo model where primary CLL cells from patient-derived blood were stimulated to proliferate with 10% fetal bovine serum (FBS), 5 ng/mL recombinant human interleukine-4 (rh IL-4), 10 ng/mL recombinant human interleukine-10 (rh IL-10) and co-cultured with fibroblast expressing surface CD154 (CD40L) in a 96 well plate format.
Peripheral blood mononuclear cells (PBMCs) from CLL patients (Table 7) containing 52%-86% of CD5^+CD19^+ tumor cells were cultured at a density of 0.06-0.1×10^6 cells/well on a monolayer of CD154-expressing fibroblasts at a density of 0.09×10^6 cells/well in 96-well plates in RPMI 1640 medium supplemented with 10% FBS, 5 ng/mL rh IL-4 and 10 ng/mL rh IL-10. The cells were treated with vehicle control (0.1% DMSO) or increasing concentrations of Compound 1 ranging from 0.0001 to 1 μM and GA101 at concentrations ranging from 8 ng/mL to 5 ug/mL across all the different concentrations of Compound 1. After 144 h of treatment with both the agents, flow cytometric analysis was used to determine the number of tumor cells that were viable or apoptotic.
The tumor cell count was assessed by staining the patient PBMCs in each condition with tumor cell surface markers CD5 & CD19 along with Live/Dead fixable dye to exclude the dead cells and followed by intracellular staining for Caspase3 antibody to identify the apoptotic cells and was measured by flow cytometry (Attune NxT, Thermo Fisher). The live tumor cell count for each condition was calculated by normalizing to the precision count beads added to each sample.
The live tumor cell count was then normalized to the DMSO control (considered as 100% viable) to calculate the percentage of viable cells remaining after treatment. The normalized percentage of tumor cells was then represented as a heat map using Graph Pad Prism 8.0.0 to indicate the degree of tumor toxicity for each of the combinations (FIG. 1). Based on the data shown in FIG. 1, synergy/additivity calculations were performed using the HSA and Bliss Independence Model.
For apoptosis analysis, the percentage of apoptosis combining both “early” (Caspase 3 positive and Live-Dead fixable dye negative) and “late” apoptosis (Caspase 3 and Live-Dead fixable dye positive) cell gates subtracting the baseline DMSO value was graphed using GraphPad Prism 8.0.0.0. The Ymax (maximal percentage of apoptosis achieved) values from apoptosis curves were calculated by performing a nonlinear regression curve fitting using log(agonist) vs. normalized response—Variable slope analysis and identifying the maximum value on GraphPad Prism 8.0.0 (Table 8).

EHEB CLL cell line = test: Cell proliferation and viability assay (384-well flow cytometry, Annexin V/DRAQ7), EHEB; assay type: cell-based; conditions: 120 hours
Protocol: as §1, §2, §3

PGA1 CLL cell line = test: Cell proliferation and viability assay (384-well flow cytometry, Annexin V/DRAQ7), PGA1; assay type: cell-based; conditions: 120 hours
Protocol: as §1, §2, §3

HG3 CLL cell line = test: Cell proliferation and viability assay (384-well flow cytometry, Annexin V/DRAQ7), HG3; assay type: cell-based; conditions: 120 hours
Protocol: as §1, §2, §3

CI CLL cell line = test: Cell proliferation and viability assay (384-well flow cytometry, Annexin V/DRAQ7), CI; assay type: cell-based; conditions: 120 hours
Protocol: as §1, §2, §3

For `O=C1CC[C@H](N2C(=O)c3cccc(NCc4ccc(CN5CC(N6CCOCC6)C5)cc4F)c3C2=O)C(=O)N1` [Compound 1, (S)-2-(2,6-dioxopiperidin-3-yl)-4-((2-fluoro-4-((3-morpholinoazetidin-1-yl)methyl)benzyl)amino)isoindoline-1,3-dione], the “% Viable Cells Emax (percentage of tumor cells remaining)” value (Mec1 CLL cell line) was 83.45%, the “Ymax of Pt 11 (%)” value ([1]; Pt 11) was 18.81% and the “Ymax of Pt 12 (%)” value ([1]; Pt 12) was 19.11%. For the same compound, the “Ymax of Pt 13 (%)” value ([1]; Pt 13) was 29.40%, the “Ymax of Pt 14 (%)” value ([1]; Pt 14) was 24.11% and the “% Viable Cells Emax (percentage of tumor cells remaining)” value (EHEB CLL cell line) was 28.68%. The “% Viable Cells Emax (percentage of tumor cells remaining)” value (PGA1 CLL cell line) was 69.21%, the “% Viable Cells Emax (percentage of tumor cells remaining)” value (HG3 CLL cell line) was 59.58% and the “% Viable Cells Emax (percentage of tumor cells remaining)” value (CI CLL cell line) was 53.58%.
